Test results from patent US20190352288A1, “MATRIX METALLOPROTEINASE (MMP) INHIBITORS AND METHODS OF USE THEREOF” (Foresee Pharmaceuticals Co., Ltd., priority 2018, published 2019).
pIC50: −log10 of the molar value.

Tests used:
Assay type in all cases: biochemical
Settings in all cases: Table 2 selectivity profile
recombinant human MMP-1 = target: T1, recombinant human MMP-1 (Homo sapiens, UniProt P03956); test: MMP selectivity assay, MMP-1
T1 sequence (P03956 100-469): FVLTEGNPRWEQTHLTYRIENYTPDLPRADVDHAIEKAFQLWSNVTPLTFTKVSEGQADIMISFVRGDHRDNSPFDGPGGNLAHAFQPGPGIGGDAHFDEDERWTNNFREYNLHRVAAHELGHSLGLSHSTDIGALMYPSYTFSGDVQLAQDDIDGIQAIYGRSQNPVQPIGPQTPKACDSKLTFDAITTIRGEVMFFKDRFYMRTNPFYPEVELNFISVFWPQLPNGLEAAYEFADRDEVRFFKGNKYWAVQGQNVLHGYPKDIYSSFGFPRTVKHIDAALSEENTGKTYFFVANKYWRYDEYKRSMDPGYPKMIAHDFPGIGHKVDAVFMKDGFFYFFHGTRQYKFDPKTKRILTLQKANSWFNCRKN
Procedure: (§1) The inhibitory effect of compounds on the rate of cleaving fluorogenic MMP substrate (Enzo, BML-P128) by recombinant human MMP-12 catalytic domain (Enzo, BML-SE138) was carried out by methods known in the art. Briefly, to each well of a 96-well black opaque plate, all the reagents were sequentially added by pipetting, and the final reaction contained 4 nM of recombinant human MMP-12 catalytic domain, 4 μM of fluorogenic MMP substrate, and various concentrations (0.15 nM to 10,000 nM) of tested compound dilutions in HEPES buffer (pH 7.5) containing 10 mM of CaCl2), 0.01% Brij® 35 (polyoxyethylene (23) lauryl ether), and 0.1 mg/ml of BSA.
(§2) The enzyme and compounds were pre-incubated on a shaker to mix in wells. After an hour of mixing, fluorogenic substrate was added to each well. Reaction without enzyme was used as a blank control in the plate. The plate was then fed into a plate reader to measure fluorescence intensity at Excitation/Emission wavelengths of 340 nm/440 nm every 10 mins for at least 1 hour at 37° C. The IC50 of each compound in MMP-12 inhibition was determined by using a readout obtained at time point 30 minutes.
(§3) The MMP selectivity assay was performed by using other recombinant human MMPs, including MMP-1, MMP-2, MMP-3, MMP-7, MMP-8, MMP-9, MMP-10, MMP-13, and MMP-14. The IC50 of the compounds for the other recombinant human MMPs was determined as described above in Example 1, and are shown in Table 2.

recombinant human MMP-2 = target: T2, recombinant human MMP-2 (Homo sapiens, UniProt P08253); test: MMP selectivity assay, MMP-2
T2 sequence (P08253 110-660): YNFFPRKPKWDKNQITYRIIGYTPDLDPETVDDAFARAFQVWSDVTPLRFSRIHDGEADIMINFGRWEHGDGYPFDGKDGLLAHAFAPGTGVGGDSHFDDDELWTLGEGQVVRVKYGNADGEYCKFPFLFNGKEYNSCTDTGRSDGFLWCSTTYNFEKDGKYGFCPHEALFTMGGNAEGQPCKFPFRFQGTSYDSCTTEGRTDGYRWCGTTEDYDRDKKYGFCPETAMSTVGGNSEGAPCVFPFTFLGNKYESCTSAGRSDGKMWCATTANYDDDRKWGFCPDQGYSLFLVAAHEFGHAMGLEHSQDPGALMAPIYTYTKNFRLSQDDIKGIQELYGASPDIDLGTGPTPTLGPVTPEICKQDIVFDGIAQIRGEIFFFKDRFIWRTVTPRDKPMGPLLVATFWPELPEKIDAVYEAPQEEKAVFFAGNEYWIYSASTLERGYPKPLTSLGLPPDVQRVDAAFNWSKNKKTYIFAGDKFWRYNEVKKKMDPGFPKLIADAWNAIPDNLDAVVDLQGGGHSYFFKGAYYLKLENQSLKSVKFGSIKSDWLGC
Procedure: as §1, §2, §3

recombinant human MMP-3 = recombinant human MMP-3 (Homo sapiens, UniProt P08254); test: MMP selectivity assay, MMP-3
recombinant human MMP-3, sequence (P08254 100-477): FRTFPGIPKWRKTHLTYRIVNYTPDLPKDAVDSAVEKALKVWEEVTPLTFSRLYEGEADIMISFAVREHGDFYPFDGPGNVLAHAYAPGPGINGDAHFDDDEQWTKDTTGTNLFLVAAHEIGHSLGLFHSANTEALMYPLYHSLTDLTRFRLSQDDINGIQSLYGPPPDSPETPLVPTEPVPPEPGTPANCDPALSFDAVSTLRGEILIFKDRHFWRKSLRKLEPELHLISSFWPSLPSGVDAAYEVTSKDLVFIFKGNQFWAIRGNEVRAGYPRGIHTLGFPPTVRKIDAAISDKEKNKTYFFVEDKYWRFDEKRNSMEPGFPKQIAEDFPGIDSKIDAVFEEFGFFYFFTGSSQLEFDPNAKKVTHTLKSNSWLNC
Procedure: as §1, §2, §3

recombinant human MMP-7 = target: T3, recombinant human MMP-7 (Homo sapiens, UniProt P09237); test: MMP selectivity assay, MMP-7
T3 sequence (P09237 95-267): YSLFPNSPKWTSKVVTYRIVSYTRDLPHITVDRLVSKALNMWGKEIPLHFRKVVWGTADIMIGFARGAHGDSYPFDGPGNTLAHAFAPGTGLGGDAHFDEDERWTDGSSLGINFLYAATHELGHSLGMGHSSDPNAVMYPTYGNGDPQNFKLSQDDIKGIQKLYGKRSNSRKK
Procedure: as §1, §2, §3

recombinant human MMP-8 = recombinant human MMP-8 (Homo sapiens, UniProt P22894); test: MMP selectivity assay, MMP-8
recombinant human MMP-8, sequence (P22894 101-467): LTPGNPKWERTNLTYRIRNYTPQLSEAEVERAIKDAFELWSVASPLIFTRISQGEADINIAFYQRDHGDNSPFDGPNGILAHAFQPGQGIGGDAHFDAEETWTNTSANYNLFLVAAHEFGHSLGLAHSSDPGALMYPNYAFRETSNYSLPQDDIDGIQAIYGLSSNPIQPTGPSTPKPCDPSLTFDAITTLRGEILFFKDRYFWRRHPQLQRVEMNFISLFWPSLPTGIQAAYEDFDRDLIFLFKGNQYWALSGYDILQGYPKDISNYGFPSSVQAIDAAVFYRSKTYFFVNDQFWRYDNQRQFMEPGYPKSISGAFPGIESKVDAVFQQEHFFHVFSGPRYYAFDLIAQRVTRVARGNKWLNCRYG
Procedure: as §1, §2, §3

recombinant human MMP-9 = recombinant human MMP-9 (Homo sapiens, UniProt P14780); test: MMP selectivity assay, MMP-9
recombinant human MMP-9, sequence (P14780 94-707): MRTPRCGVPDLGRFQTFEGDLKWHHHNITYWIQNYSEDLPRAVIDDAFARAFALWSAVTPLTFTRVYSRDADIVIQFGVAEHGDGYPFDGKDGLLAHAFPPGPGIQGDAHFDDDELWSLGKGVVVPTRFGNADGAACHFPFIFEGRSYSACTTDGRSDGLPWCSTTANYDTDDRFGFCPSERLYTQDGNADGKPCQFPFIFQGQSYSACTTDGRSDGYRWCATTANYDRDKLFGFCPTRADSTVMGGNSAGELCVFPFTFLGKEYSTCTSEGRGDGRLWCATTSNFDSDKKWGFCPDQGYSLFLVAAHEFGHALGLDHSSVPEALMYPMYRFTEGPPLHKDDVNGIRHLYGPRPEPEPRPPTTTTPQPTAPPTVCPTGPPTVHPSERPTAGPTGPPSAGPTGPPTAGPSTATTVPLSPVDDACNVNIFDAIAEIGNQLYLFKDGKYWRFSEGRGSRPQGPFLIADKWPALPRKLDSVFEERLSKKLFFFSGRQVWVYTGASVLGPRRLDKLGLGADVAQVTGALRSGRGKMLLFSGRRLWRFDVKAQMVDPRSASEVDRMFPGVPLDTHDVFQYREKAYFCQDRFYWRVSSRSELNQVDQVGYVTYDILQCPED
Procedure: as §1, §2, §3

recombinant human MMP-10 = recombinant human MMP-10 (Homo sapiens, UniProt P09238); test: MMP selectivity assay, MMP-10
recombinant human MMP-10, sequence (P09238 99-476): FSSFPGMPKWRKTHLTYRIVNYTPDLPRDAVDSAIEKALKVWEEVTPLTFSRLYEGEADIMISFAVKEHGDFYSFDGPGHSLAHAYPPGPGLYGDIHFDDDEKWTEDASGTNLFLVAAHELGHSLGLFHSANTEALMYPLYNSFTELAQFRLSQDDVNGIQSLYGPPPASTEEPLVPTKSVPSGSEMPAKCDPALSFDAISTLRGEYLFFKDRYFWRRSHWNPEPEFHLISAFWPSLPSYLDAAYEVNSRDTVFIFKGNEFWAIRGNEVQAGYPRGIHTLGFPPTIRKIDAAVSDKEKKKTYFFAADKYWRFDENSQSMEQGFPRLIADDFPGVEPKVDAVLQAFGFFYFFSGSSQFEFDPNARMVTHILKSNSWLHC
Procedure: as §1, §2, §3

recombinant human MMP-13 = recombinant human MMP-13 (Homo sapiens, UniProt P45452); test: MMP selectivity assay, MMP-13
Procedure: as §1, §2, §3

recombinant human MMP-14 = recombinant human MMP-14 (Homo sapiens, UniProt P50281); test: MMP selectivity assay, MMP-14
Procedure: as §1, §2, §3

| Structure (SMILES) | pIC50 (recombinant human MMP-1) | pIC50 (recombinant human MMP-2) | pIC50 (recombinant human MMP-3) | pIC50 (recombinant human MMP-7) | pIC50 (recombinant human MMP-8) | pIC50 (recombinant human MMP-9) | pIC50 (recombinant human MMP-10) | pIC50 (recombinant human MMP-13) | pIC50 (recombinant human MMP-14) |
| --- | --- | --- | --- | --- | --- | --- | --- | --- | --- |
| Cc1cc(COc2ccc(Sc3ccncc3C3NC(=O)NC3=O)c(Cl)c2)ccn1 (stereo not drawn) [PC-51] | < 5.00 | 5.00 to 6.00 | 5.00 to 6.00 | 5.00 to 6.00 | 6.00 to 7.00 | 5.00 to 6.00 | 5.00 to 6.00 | 6.00 to 7.00 | 5.00 to 6.00 |
| O=C1NC(=O)C(c2sccc2Sc2ccc(OCc3ccccc3CO)cc2)N1 (stereo not drawn) [TC5] | < 5.00 | 5.00 to 6.00 | 5.00 to 6.00 | < 5.00 | 5.00 to 6.00 | 5.00 to 6.00 | 5.00 to 6.00 | < 5.00 | < 5.00 |
| Cc1cc(COc2ccc(Sc3ccncc3C3NC(=O)NC3=O)c(F)c2)ccn1 (stereo not drawn) [PC-50] | < 5.00 | 6.00 to 7.00 | 6.00 to 7.00 | < 5.00 | 6.00 to 7.00 | 5.00 to 6.00 | 5.00 to 6.00 | 6.00 to 7.00 | 5.00 to 6.00 |
| Cc1cc(COc2ccc(Sc3ncoc3C3NC(=O)NC3=O)cc2)ccn1 (stereo not drawn) [OC-7] | < 5.00 | 6.00 to 7.00 | 5.00 to 6.00 | < 5.00 | 6.00 to 7.00 | 5.00 to 6.00 | 5.00 to 6.00 | 6.00 to 7.00 | < 5.00 |
| Cc1cc(COc2ccc(Sc3ccncc3C3NC(=O)NC3=O)cc2C)ccn1 (stereo not drawn) [PC-48] | < 5.00 | 5.00 to 6.00 | 5.00 to 6.00 | < 5.00 | 5.00 to 6.00 | 5.00 to 6.00 | 5.00 to 6.00 | 6.00 to 7.00 | < 5.00 |
| O=C1NC(=O)C(c2ccncc2Sc2ccc(OCc3cccc(CO)c3)cc2)N1 (stereo not drawn) [PC-13] | < 5.00 | 5.00 to 6.00 | 6.00 to 7.00 | < 5.00 | 5.00 to 6.00 | 5.00 to 6.00 | 5.00 to 6.00 | 5.00 to 6.00 | < 5.00 |
| Cc1cc(COc2ccc(Sc3ncn(C)c3C3NC(=O)NC3=O)cc2)ccn1 (stereo not drawn) [OC-13] | < 5.00 | 6.00 to 7.00 | 5.00 to 6.00 | < 5.00 | 6.00 to 7.00 | 5.00 to 6.00 | 5.00 to 6.00 | 6.00 to 7.00 | 6.00 to 7.00 |
| O=C1NC(=O)C(c2cnccc2Sc2ccc(OCc3cccc(O)c3)cc2)N1 (stereo not drawn) [PC-10] | < 5.00 | 5.00 to 6.00 | 5.00 to 6.00 | < 5.00 | 5.00 to 6.00 | 5.00 to 6.00 | < 5.00 | 5.00 to 6.00 | < 5.00 |
| O=C1NC(=O)C(c2cnccc2Sc2ccc(OCc3cccc(CO)c3)cc2)N1 (stereo not drawn) [PC-8] | < 5.00 | 5.00 to 6.00 | 5.00 to 6.00 | < 5.00 | < 5.00 | < 5.00 | < 5.00 | 5.00 to 6.00 | < 5.00 |
| Cc1cc(COc2ccc(Sc3cnn(C)c3C3NC(=O)NC3=O)cc2)ccn1 (stereo not drawn) [OC-12] | < 5.00 | 6.00 to 7.00 | 5.00 to 6.00 | < 5.00 | 6.00 to 7.00 | 5.00 to 6.00 | 5.00 to 6.00 | 6.00 to 7.00 | 5.00 to 6.00 |

The next lines start with the values.

| pIC50 (recombinant human MMP-1) | pIC50 (recombinant human MMP-2) | pIC50 (recombinant human MMP-3) | pIC50 (recombinant human MMP-7) | pIC50 (recombinant human MMP-8) | pIC50 (recombinant human MMP-9) | pIC50 (recombinant human MMP-10) | pIC50 (recombinant human MMP-13) | pIC50 (recombinant human MMP-14) | Structure (SMILES) |
| --- | --- | --- | --- | --- | --- | --- | --- | --- | --- |
| < 5.00 | 5.00 to 6.00 | 6.00 to 7.00 | < 5.00 | 6.00 to 7.00 | 5.00 to 6.00 | 5.00 to 6.00 | 5.00 to 6.00 | 5.00 to 6.00 | O=C1NC(=O)C(c2sccc2Sc2ccc(OCc3cccc(CO)c3)cc2)N1 (stereo not drawn) [TC4] |
| < 5.00 | 6.00 to 7.00 | 6.00 to 7.00 | 5.00 to 6.00 | 7.00 to 8.00 | 6.00 to 7.00 | 6.00 to 7.00 | 7.00 to 8.00 | 6.00 to 7.00 | Cc1cc(COc2ccc(Sc3ccsc3C3NC(=O)NC3=O)cc2)ccn1 (stereo not drawn) [TC8] |
